Results: article PMC11946101, “Structural Insights into Salinosporamide a Mediated Inhibition of the Human 20S Proteasome” (Molecules, 2025)

Assays:
Format in all cases: biochemical
[1] = biological target: T1, human 20S proteasome subunit β1 (Homo sapiens, UniProt P28072); assay: cryo-EM structure at […] Å; IC50 with Z-LLE-amc
T1 construct: gene PSMB6; human constitutive 20S proteasome (h20S), whole complex; catalytic N-terminal Thr1; with other subunits of the 20S proteasome (α1–α7, β1–β7)

[2] = system: T2, Trichomonas vaginalis 20S proteasome (Tv20S) subunit β5; assay: IC50 for the individual proteolytic subunit (Figure S5)
T2 construct: Tv20S, whole complex; with other subunits of the Tv20S proteasome

[3] = biological target: T3, human 20S proteasome subunit β5 (Homo sapiens, UniProt P28074); assay: cryo-EM structure at […] Å; IC50 with Suc-LLVY-amc
T3 construct: gene PSMB5; human constitutive 20S proteasome (h20S), whole complex; catalytic N-terminal Thr1; with other subunits of the 20S proteasome (α1–α7, β1–β7)

[4] = biological target: T4, human 20S proteasome subunit β2 (Homo sapiens, UniProt Q99436); assay: cryo-EM structure at […] Å; IC50 with Z-VLR-amc
T4 construct: gene PSMB7; human constitutive 20S proteasome (h20S), whole complex; catalytic N-terminal Thr1; with other subunits of the 20S proteasome (α1–α7, β1–β7)

[5] = system: T5, Trichomonas vaginalis 20S proteasome (Tv20S) subunit β1; assay: IC50 for the individual proteolytic subunit (Figure S5)
T5 construct: Tv20S, whole complex; with other subunits of the Tv20S proteasome

T4 sequence (Q06323 whole entry): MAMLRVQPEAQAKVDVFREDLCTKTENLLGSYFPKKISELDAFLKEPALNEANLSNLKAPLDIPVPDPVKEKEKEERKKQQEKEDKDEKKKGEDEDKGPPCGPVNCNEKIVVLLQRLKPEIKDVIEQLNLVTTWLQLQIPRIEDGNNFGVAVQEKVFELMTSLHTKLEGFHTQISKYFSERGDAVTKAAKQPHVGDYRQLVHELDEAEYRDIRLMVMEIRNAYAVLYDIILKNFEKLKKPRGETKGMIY
T4 sequence (Q99436 44-277): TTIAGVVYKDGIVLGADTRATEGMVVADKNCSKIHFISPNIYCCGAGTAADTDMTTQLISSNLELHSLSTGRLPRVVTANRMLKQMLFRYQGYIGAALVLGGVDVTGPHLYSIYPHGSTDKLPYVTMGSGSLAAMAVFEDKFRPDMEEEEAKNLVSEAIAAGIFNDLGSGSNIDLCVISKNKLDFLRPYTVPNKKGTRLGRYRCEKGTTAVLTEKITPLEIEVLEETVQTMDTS
T1 sequence (Q06323 whole entry): as the sequence (Q06323 whole entry) above
T1 sequence (P28072 35-239): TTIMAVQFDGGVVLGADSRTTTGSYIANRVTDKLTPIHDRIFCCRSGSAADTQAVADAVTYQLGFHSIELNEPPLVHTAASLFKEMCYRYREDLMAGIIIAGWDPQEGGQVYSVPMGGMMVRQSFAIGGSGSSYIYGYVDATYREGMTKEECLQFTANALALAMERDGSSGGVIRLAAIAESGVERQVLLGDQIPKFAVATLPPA
T3 sequence (Q06323 whole entry): as the sequence (Q06323 whole entry) above
T3 sequence (P28074 60-263): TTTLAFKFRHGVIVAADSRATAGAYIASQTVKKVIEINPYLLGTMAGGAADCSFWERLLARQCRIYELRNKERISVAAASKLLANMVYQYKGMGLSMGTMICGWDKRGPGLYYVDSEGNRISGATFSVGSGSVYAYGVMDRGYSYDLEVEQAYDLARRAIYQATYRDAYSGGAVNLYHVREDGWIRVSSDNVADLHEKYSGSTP

C[C@@]12OC(=O)[C@]1([C@@H](O)[C@@H]1C=CCCC1)NC(=O)[C@@H]2CCCl [MZB, Marizomib]
IC50 [1]: 597 nM | IC50 [2]: 3.9 ± 0.2 nM | IC50 [3]: 18.5 nM | IC50 [4]: 326 nM | IC50 [5]: 244 ± 72.2 nM
